Literature values, collected in patent US20040037773A1, “Method for detecting abnormal tissue using enhanced radiopharmaceutical uptake” (Block Medical Center, priority 2002, published 2004).

System: mitochondria
Conditions: energy dependent manner

[99Tc+].[C-]#[N+]CC(C)(C)OC.[C-]#[N+]CC(C)(C)OC.[C-]#[N+]CC(C)(C)OC.[C-]#[N+]CC(C)(C)OC.[C-]#[N+]CC(C)(C)OC.[C-]#[N+]CC(C)(C)OC [sestamibi, Technetium-99m hexakis 2-methoxyisobutylisonitrile]
Share of sestamibi taken up by mitochondria: over 90%
